Measurements: ChEMBL document CHEMBL3988442, “University of Dundee, Small-Polar-MMV Screening Library” (2021)
Where “and” joins values, the source holds several entries; their conditions need not be identical. Equal entries are not always repeated.

Assays:
Format in all cases: functional
Tryptophan--tRNA ligase = Tryptophan--tRNA ligase (Mycobacterium tuberculosis (strain ATCC 25618 / H37Rv), UniProt P9WFT3); assay: Biochemical assay for Mt-TrpRS
[1] = molecular target: T1, Ubiquitin-activating enzyme e1, putative (Leishmania donovani (strain BPK282A1), UniProt E9BSI1); assay: Leishmania donovani Ubiquitin Activating Enzyme (LdE1)
T1 sequence (E9BSI1 whole entry): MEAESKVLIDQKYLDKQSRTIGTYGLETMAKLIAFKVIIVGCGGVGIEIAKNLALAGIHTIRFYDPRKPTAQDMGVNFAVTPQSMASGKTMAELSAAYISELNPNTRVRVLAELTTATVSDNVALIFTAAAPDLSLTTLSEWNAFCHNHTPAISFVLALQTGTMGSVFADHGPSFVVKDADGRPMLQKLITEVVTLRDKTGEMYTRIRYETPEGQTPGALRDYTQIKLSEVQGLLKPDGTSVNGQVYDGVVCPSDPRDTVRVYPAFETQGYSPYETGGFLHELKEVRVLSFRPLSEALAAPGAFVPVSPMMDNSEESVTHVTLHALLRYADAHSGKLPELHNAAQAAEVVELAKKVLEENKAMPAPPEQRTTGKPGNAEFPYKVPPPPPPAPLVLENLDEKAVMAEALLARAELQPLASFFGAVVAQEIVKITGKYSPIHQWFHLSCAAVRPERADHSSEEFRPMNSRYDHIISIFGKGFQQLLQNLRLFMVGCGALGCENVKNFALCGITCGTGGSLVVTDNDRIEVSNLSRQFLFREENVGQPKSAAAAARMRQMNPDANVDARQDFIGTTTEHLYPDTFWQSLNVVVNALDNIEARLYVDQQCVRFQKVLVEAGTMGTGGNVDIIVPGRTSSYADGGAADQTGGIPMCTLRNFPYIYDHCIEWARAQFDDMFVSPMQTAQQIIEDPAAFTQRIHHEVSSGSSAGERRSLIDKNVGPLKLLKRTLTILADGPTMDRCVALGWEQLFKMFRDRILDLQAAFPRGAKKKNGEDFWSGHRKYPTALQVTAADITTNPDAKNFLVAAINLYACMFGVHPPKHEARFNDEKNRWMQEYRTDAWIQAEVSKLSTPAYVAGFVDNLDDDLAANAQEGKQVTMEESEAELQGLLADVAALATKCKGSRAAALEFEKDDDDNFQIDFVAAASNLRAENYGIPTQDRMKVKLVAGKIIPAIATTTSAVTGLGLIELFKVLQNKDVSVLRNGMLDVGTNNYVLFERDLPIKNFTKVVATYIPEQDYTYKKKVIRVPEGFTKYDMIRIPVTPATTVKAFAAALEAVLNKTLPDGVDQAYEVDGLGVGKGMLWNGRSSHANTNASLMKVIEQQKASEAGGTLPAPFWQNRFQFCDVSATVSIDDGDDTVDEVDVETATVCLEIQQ

Histidine--tRNA ligase = molecular target: T2, Histidine--tRNA ligase (Leishmania infantum, UniProt A4I591); assay: Leishmania infantum Histidine tRNA synthetase (LdHisRS)
T2 sequence (A4I591 whole entry): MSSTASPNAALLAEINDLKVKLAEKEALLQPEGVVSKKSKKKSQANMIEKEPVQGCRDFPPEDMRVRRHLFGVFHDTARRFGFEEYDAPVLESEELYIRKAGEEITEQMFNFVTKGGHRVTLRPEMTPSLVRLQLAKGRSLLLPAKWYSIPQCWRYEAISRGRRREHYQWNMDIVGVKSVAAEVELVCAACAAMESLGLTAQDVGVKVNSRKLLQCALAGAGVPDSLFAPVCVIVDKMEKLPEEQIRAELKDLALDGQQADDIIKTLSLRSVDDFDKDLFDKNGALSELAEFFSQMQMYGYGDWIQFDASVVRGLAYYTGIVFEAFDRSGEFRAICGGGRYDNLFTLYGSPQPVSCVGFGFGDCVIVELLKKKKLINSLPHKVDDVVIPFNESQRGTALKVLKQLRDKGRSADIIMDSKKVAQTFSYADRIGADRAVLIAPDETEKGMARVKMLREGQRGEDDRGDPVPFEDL

Sequence of Tryptophan--tRNA ligase (P9WFT3 whole entry): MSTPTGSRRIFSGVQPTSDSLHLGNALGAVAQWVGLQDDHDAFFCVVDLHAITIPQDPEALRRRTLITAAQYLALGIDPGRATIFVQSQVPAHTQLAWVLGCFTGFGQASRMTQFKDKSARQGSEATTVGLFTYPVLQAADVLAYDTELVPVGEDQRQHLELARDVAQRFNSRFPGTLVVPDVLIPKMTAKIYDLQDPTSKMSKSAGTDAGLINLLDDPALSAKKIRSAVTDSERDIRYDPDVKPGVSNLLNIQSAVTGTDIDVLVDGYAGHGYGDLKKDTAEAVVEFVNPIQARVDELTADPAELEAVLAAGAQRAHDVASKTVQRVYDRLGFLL

Structure (SMILES) | IC50 (Tryptophan--tRNA ligase) [µM] | IC50 [1] [µM] | IC50 (Histidine--tRNA ligase)
CC(C)N1CCC(Cc2cncc(-c3cccc(C(=O)O)c3)n2)C1 (configuration not stated) | > 195 | > 100 | –
Cn1nc2c(cc1=O)CN(Cc1coc(-c3ccccc3)n1)CC2 | – | > 100 | –
O=C(CCNC(=O)C1CCCC1)NCc1ccccc1Cn1ccnc1 | – | > 100 | –
O=C(NCc1ccccc1Cn1cncn1)C1CCCCC1 | – | > 100 | –
CC(O)CN1CCN(C(=O)c2ccc(N3CCCC3)nn2)CC1 (configuration not stated) | – | > 100 | –
Cc1ccc(C(=O)NCCNc2ncccc2C#N)c(=O)[nH]1 | – | > 100 | –
O=C(CCS(=O)(=O)C1CCCC1)NCc1ccccc1Cn1cncn1 | – | > 100 | –
CC(Cn1cccn1)NCc1nc(-c2cccc(Cl)c2)no1 (configuration not stated) | – | > 100 | –
O=C(Cc1ccsc1)N1C[C@@H]2COC[C@]2(COCc2cccnc2)C1 | – | > 100 | –
Cc1ccoc1C(=O)N1C[C@@H]2COC[C@]2(COCc2cccnc2)C1 | – | > 100 | –
Cc1nc(C)n(CC2CCCCN2Cc2nnc(C3CC3)o2)n1 (configuration not stated) | – | > 100 | –
O=C(c1ncccn1)N1C[C@@H]2COC[C@]2(COCc2cccnc2)C1 | – | > 100 | –
CC[C@H]1N(CC2CCC2)CCC[C@]12CCC(=O)N2Cc1ccncc1 | – | > 100 | –
Cc1ccc(-c2nnc(CN3CCc4nn(C)c(=O)cc4C3)o2)cc1 | – | > 100 | 10.5 µM and 12.1 µM
COc1ccc(CNCc2ccc(N3CCCCC3)nc2)cc1OC | – | > 100 | –
CC(OCC1CC1)C(=O)N1CCCN(Cc2nccn2C)CC1 (configuration not stated) | – | > 100 | –
CC[C@H]1N(C)CCC[C@]12CCC(=O)N2Cc1ccncc1 | – | > 100 | –
CCCc1nc(C)c(C(=O)NCCNc2ncccc2C#N)s1 | – | > 100 | –
CNS(=O)(=O)Cc1ccc(CNC(=O)Nc2cccnc2)cc1 | – | > 100 | –
CC[C@H]1NCCC[C@]12CCC(=O)N2Cc1ccncc1 | – | > 100 | –
CC(C)N1CCC(Cc2cncc(-c3cccc(C(=O)O)c3)n2)CC1 | – | > 100 | –
Cn1nc2c(cc1=O)CN(Cc1coc(-c3cccc(F)c3)n1)CC2 | – | > 100 | 17 µM and 14.3 µM

Structure (SMILES) | IC50 (Tryptophan--tRNA ligase) [µM] | IC50 [1] [µM] | IC50 (Histidine--tRNA ligase)
CCOCC(O)CN1CCN(C(=O)c2ccc(N(C)C)nn2)CC1 (configuration not stated) | – | > 100 | –
O=C(NCc1ccccc1Cn1cncn1)C1CC1 | – | > 100 | –
CSC(C)C(=O)N1CCCN(Cc2nccn2C)CC1 (configuration not stated) | – | > 100 | –
O=C(Cc1cccs1)N1C[C@@H]2COC[C@]2(COCc2cccnc2)C1 | – | > 100 | –
Cc1nc(C)n(CC2CCCCN2Cc2nc3ccccc3o2)n1 (configuration not stated) | – | > 100 | –
CC(OCC1CC1)C(=O)N1CCCN(Cc2cnn(C)c2)CC1 (configuration not stated) | – | > 100 | –
CC(Cn1cccn1)NCc1nc(-c2ccccc2Cl)no1 (configuration not stated) | – | > 100 | –
CC(C)c1nc2n(n1)CC(NCc1nnc(C3CC3)o1)CC2 (configuration not stated) | – | > 100 | –
CC(C)N1CCC(Cc2cnc(-c3cccc(C(=O)O)c3)cn2)C1 (configuration not stated) | – | > 100 | –
CCCN1CCC[C@]2(CCC(=O)N2Cc2ccncc2)[C@H]1CC | – | > 100 | –
CCn1nc2c(cc1=O)CN(Cc1coc(-c3ccccc3)n1)CC2 | – | > 100 | –
Cc1ncsc1C(=O)NCCNc1ncccc1C#N | – | > 100 | –
COc1cc(CNCc2ccnc(N3CCCC3)c2)cc(OC)c1 | – | > 100 | –
NC(=O)c1ccc(CNC(=O)Nc2cn[nH]c2)cc1 | > 195 | > 100 | –
CCc1nc(C)c(C(=O)NCCNc2ncccc2C#N)s1 | – | > 100 | –
CCn1nc2c(cc1=O)CN(Cc1nnc(C3CC3)o1)CC2 | – | > 100 | –
Cc1nc(C)n(CC2CCCCN2Cc2cnc(C)s2)n1 (configuration not stated) | – | > 100 | –
CC(C)N1CCC(Cc2cc(-c3cccc(C(=O)O)c3)ncn2)CC1 | – | > 100 | –
CC(C)(C)c1cnc(CN2CCC[C@H]2CO)o1 | – | > 100 | –
CC[C@@H]1N(C)CCC[C@]12CCC(=O)N2Cc1ccncc1 | – | > 100 | –
O=C(CCC1CCCO1)NCc1ccccc1Cn1cncn1 (configuration not stated) | – | > 100 | –
